Reference: ChEMBL document CHEMBL4308841, “Synthesis, in vitro antiproliferative activity, and kinase inhibitory effects of pyrazole-containing diarylureas and diarylamides” (Eur J Med Chem, 2018)
pIC50: −log10 of the molar value.

Assays:
HOP-62 [1] = assay: Growth inhibition of human HOP62 cells incubated for 48 hrs by sulforhodamine B assay; type: functional, cell-based; conditions: HOP-62, 48 h
OVCAR-3 [2] = assay: Growth inhibition of human OVCAR3 cells incubated for 48 hrs by sulforhodamine B assay; type: functional, cell-based; conditions: OVCAR-3, 48 h
SN12C [3] = assay: Growth inhibition of human SN12C cells incubated for 48 hrs by sulforhodamine B assay; type: functional, cell-based
CCRF-CEM = assay: Growth inhibition of human CCRF-CEM cells assessed as cell growth at 0.01 uM incubated for 48 hrs by sulforhodamine B assay relative to control; type: functional; conditions: read-out: Activity
HCC 2998 = assay: Growth inhibition of human HCC2998 cells assessed as cell growth at 0.01 uM incubated for 48 hrs by sulforhodamine B assay relative to control; type: functional; conditions: HCC 2998, 48 h, read-out: Activity
MDA-MB-435 = assay: Growth inhibition of human MDA-MB-435 cells assessed as cell growth at 0.01 uM incubated for 48 hrs by sulforhodamine B assay relative to control; type: functional; conditions: MDA-MB-435, 48 h, read-out: Activity
SN12C [4] = assay: Growth inhibition of human SN12C cells assessed as cell growth at 0.01 uM incubated for 48 hrs by sulforhodamine B assay relative to control; type: functional; conditions: read-out: Activity
MDA-MB-468 = assay: Growth inhibition of human MDA-MB-468 cells assessed as cell growth at 0.01 uM incubated for 48 hrs by sulforhodamine B assay relative to control; type: functional; conditions: MDA-MB-468, 48 h, read-out: Activity
NCI-H460 [5] = assay: Growth inhibition of human NCI-H460 cells assessed as cell growth at 0.1 uM incubated for 48 hrs by sulforhodamine B assay relative to control; type: functional; conditions: NCI-H460, 48 h, read-out: Activity
SF-295 = assay: Growth inhibition of human SF295 cells assessed as cell growth at 0.1 uM incubated for 48 hrs by sulforhodamine B assay relative to control; type: functional; conditions: SF-295, 48 h, read-out: Activity
SNB-19 [6] = assay: Growth inhibition of human SNB19 cells assessed as cell growth at 0.1 uM incubated for 48 hrs by sulforhodamine B assay relative to control; type: functional; conditions: SNB-19, 48 h, read-out: Activity
NCI/ADR-RES = assay: Growth inhibition of human NCI/ADR-RES cells assessed as cell growth at 0.1 uM incubated for 48 hrs by sulforhodamine B assay relative to control; type: functional; conditions: read-out: Activity
CAKI-1 = assay: Growth inhibition of human Caki1 cells assessed as cell growth at 0.1 uM incubated for 48 hrs by sulforhodamine B assay relative to control; type: functional; conditions: CAKI-1, 48 h, read-out: Activity
DU-145 [7] = assay: Growth inhibition of human DU145 cells assessed as cell growth at 0.1 uM incubated for 48 hrs by sulforhodamine B assay relative to control; type: functional; conditions: DU-145, 48 h, read-out: Activity
MDA-MB-231 = assay: Growth inhibition of human MDA-MB-231 cells assessed as cell growth at 0.1 uM incubated for 48 hrs by sulforhodamine B assay relative to control; type: functional; conditions: MDA-MB-231, 48 h, read-out: Activity
HOP-62 [8] = assay: Growth inhibition of human HOP62 cells assessed as cell growth at 1 uM incubated for 48 hrs by sulforhodamine B assay relative to control; type: functional; conditions: HOP-62, 48 h, read-out: Activity
NCI-H322M = assay: Growth inhibition of human NCI-H322M cells assessed as cell growth at 1 uM incubated for 48 hrs by sulforhodamine B assay relative to control; type: functional; conditions: read-out: Activity
NCI-H460 [9] = assay: Growth inhibition of human NCI-H460 cells assessed as cell growth at 1 uM incubated for 48 hrs by sulforhodamine B assay relative to control; type: functional; conditions: NCI-H460, 48 h, read-out: Activity
COLO 205 = assay: Growth inhibition of human COLO205 cells assessed as cell growth at 1 uM incubated for 48 hrs by sulforhodamine B assay relative to control; type: functional; conditions: COLO 205, 48 h, read-out: Activity
SF-268 = assay: Growth inhibition of human SF268 cells assessed as cell growth at 1 uM incubated for 48 hrs by sulforhodamine B assay relative to control; type: functional; conditions: SF-268, 48 h, read-out: Activity
SK-MEL-2 = assay: Growth inhibition of human SK-MEL-2 cells assessed as cell growth at 1 uM incubated for 48 hrs by sulforhodamine B assay relative to control; type: functional; conditions: SK-MEL-2, 48 h, read-out: Activity
OVCAR-3 [10] = assay: Growth inhibition of human OVCAR3 cells assessed as cell growth at 1 uM incubated for 48 hrs by sulforhodamine B assay relative to control; type: functional; conditions: OVCAR-3, 48 h, read-out: Activity
SR = assay: Growth inhibition of human SR cells assessed as cell growth at 100 uM incubated for 48 hrs by sulforhodamine B assay relative to control; type: functional; conditions: read-out: Activity
HOP-62 [11] = assay: Growth inhibition of human HOP62 cells assessed as cell growth at 100 uM incubated for 48 hrs by sulforhodamine B assay relative to control; type: functional; conditions: HOP-62, 48 h, read-out: Activity
NCI-H226 = assay: Growth inhibition of human NCI-H226 cells assessed as cell growth at 100 uM incubated for 48 hrs by sulforhodamine B assay relative to control; type: functional; conditions: NCI-H226, 48 h, read-out: Activity
SF-539 = assay: Growth inhibition of human SF539 cells assessed as cell growth at 100 uM incubated for 48 hrs by sulforhodamine B assay relative to control; type: functional; conditions: SF-539, 48 h, read-out: Activity
SNB-19 [12] = assay: Growth inhibition of human SNB19 cells assessed as cell growth at 100 uM incubated for 48 hrs by sulforhodamine B assay relative to control; type: functional; conditions: SNB-19, 48 h, read-out: Activity
UACC-257 = assay: Growth inhibition of human UACC257 cells assessed as cell growth at 100 uM incubated for 48 hrs by sulforhodamine B assay relative to control; type: functional; conditions: UACC-257, 48 h, read-out: Activity
IGROV-1 = assay: Growth inhibition of human IGROV1 cells assessed as cell growth at 100 uM incubated for 48 hrs by sulforhodamine B assay relative to control; type: functional; conditions: IGROV-1, 48 h, read-out: Activity
786-0 = assay: Growth inhibition of human 786-0 cells assessed as cell growth at 100 uM incubated for 48 hrs by sulforhodamine B assay relative to control; type: functional; conditions: 786-0, 48 h, read-out: Activity
A498 = assay: Growth inhibition of human A498 cells assessed as cell growth at 100 uM incubated for 48 hrs by sulforhodamine B assay relative to control; type: functional; conditions: A498, 48 h, read-out: Activity
DU-145 [13] = assay: Growth inhibition of human DU145 cells assessed as cell growth at 100 uM incubated for 48 hrs by sulforhodamine B assay relative to control; type: functional; conditions: DU-145, 48 h, read-out: Activity
[14] = read-out: LC50 (the source's name)
[15] = read-out: pLC50 (the source's name) (converted)

Compound: O=C(Nc1cccc(-n2cc(-c3ccncc3)c(-c3cc(O)cc(Cl)c3)n2)c1)Nc1ccc(Cl)c(C(F)(F)F)c1
- GI50 (HOP-62 [1]; read-out: GI50): 3060 nM
- CC50 (HOP-62 [1]; [14]): > 100000 nM
- TGI (HOP-62 [1]; read-out: TGI): 13400 nM
- GI50 (HOP-62 [1]; read-out: pGI50 (converted)): 3090 nM
- CC50 (HOP-62 [1]; [15]): > 100000 nM
- TGI (HOP-62 [1]; read-out: pTGI (converted)): 13500 nM
- pIC50 (OVCAR-3 [2]): 5.63
- GI50 (OVCAR-3 [2]; read-out: GI50): 2340 nM
- CC50 (OVCAR-3 [2]; [14]): > 100000 nM
- TGI (OVCAR-3 [2]; read-out: TGI): 50000 nM
- GI50 (OVCAR-3 [2]; read-out: pGI50 (converted)): 2340 nM
- CC50 (OVCAR-3 [2]; [15]): > 100000 nM
- TGI (OVCAR-3 [2]; read-out: pTGI (converted)): 6610 nM
- GI50 (SN12C [3]; read-out: GI50): 3440 nM
- LC50 (SN12C [3]; read-out: LC50): > 100000 nM
- TGI (SN12C [3]; read-out: TGI): 17200 nM
- GI50 (SN12C [3]; read-out: pGI50 (converted)): 3550 nM
- LC50 (SN12C [3]; read-out: pLC50 (converted)): > 100000 nM
- TGI (SN12C [3]; read-out: pTGI (converted)): 17000 nM
- growth at 0.01 µM (CCRF-CEM): 97%
- growth at 0.01 µM (HCC 2998): 97%
- growth at 0.01 µM (MDA-MB-435): 97%
- growth at 0.01 µM (SN12C [4]): 102%
- growth at 0.01 µM (MDA-MB-468): 93%
- growth at 0.1 µM (NCI-H460 [5]): 102%
- growth at 0.1 µM (SF-295): 93%
- growth at 0.1 µM (SNB-19 [6]): 95%
- growth at 0.1 µM (NCI/ADR-RES): 92%
- growth at 0.1 µM (CAKI-1): 103%
- growth at 0.1 µM (DU-145 [7]): 99%
- growth at 0.1 µM (MDA-MB-231): 105%
- growth at 1 µM (HOP-62 [8]): 96%
- growth at 1 µM (NCI-H322M): 93%
- growth at 1 µM (NCI-H460 [9]): 96%
- growth at 1 µM (COLO 205): 99%
- growth at 1 µM (SF-268): 92%
- growth at 1 µM (SK-MEL-2): 104%
- growth at 1 µM (OVCAR-3 [10]): 91%
- growth at 100 µM (SR): -40%
- growth at 100 µM (HOP-62 [11]): -12%
- growth at 100 µM (NCI-H226): -38%
- growth at 100 µM (SF-539): -50%
- growth at 100 µM (SNB-19 [12]): -33%
- growth at 100 µM (UACC-257): -96%
- growth at 100 µM (IGROV-1): -41%
- growth at 100 µM (786-0): -50%
- growth at 100 µM (A498): -35%
- growth at 100 µM (DU-145 [13]): -68%

Compound: COc1cc(Cl)cc(-c2nn(-c3cccc(NC(=O)Nc4cc(C(F)(F)F)cc(C(F)(F)F)c4)c3)cc2-c2ccncc2)c1
- pIC50 (HOP-62 [1]): 6.19
- GI50 (HOP-62 [1]; read-out: GI50): 648 nM
- CC50 (HOP-62 [1]; [14]): 7140 nM
- TGI (HOP-62 [1]; read-out: TGI): 2390 nM
- GI50 (HOP-62 [1]; read-out: pGI50 (converted)): 646 nM
- CC50 (HOP-62 [1]; [15]): 7080 nM
- TGI (HOP-62 [1]; read-out: pTGI (converted)): 2400 nM
- pIC50 (OVCAR-3 [2]): 6.48
- GI50 (OVCAR-3 [2]; read-out: GI50): 334 nM
- TGI (OVCAR-3 [2]; read-out: TGI): 1410 nM
- GI50 (OVCAR-3 [2]; read-out: pGI50 (converted)): 331 nM
- CC50 (OVCAR-3 [2]; [15]): 34700 nM
- TGI (OVCAR-3 [2]; read-out: pTGI (converted)): 1410 nM
- pIC50 (SN12C [3]): 6.41
- GI50 (SN12C [3]; read-out: GI50): 356 nM
- LC50 (SN12C [3]; read-out: LC50): 29.5 nM
- TGI (SN12C [3]; read-out: TGI): 1980 nM
- GI50 (SN12C [3]; read-out: pGI50 (converted)): 389 nM
- LC50 (SN12C [3]; read-out: pLC50 (converted)): 29500 nM
- TGI (SN12C [3]; read-out: pTGI (converted)): 2000 nM
- growth at 0.01 µM (CCRF-CEM): 87%
- growth at 0.01 µM (HCC 2998): 95%
- growth at 0.01 µM (MDA-MB-435): 97%
- growth at 0.01 µM (SN12C [4]): 96%
- growth at 0.01 µM (MDA-MB-468): 97%
- growth at 0.1 µM (NCI-H460 [5]): 101%
- growth at 0.1 µM (SF-295): 91%
- growth at 0.1 µM (SNB-19 [6]): 87%
- growth at 0.1 µM (NCI/ADR-RES): 95%
- growth at 0.1 µM (CAKI-1): 95%
- growth at 0.1 µM (DU-145 [7]): 95%
- growth at 0.1 µM (MDA-MB-231): 90%
- growth at 1 µM (HOP-62 [8]): 40%
- growth at 1 µM (NCI-H322M): 49%
- growth at 1 µM (NCI-H460 [9]): 13%
- growth at 1 µM (COLO 205): 24%
- growth at 1 µM (SF-268): 37%
- growth at 1 µM (SK-MEL-2): 40%
- growth at 1 µM (OVCAR-3 [10]): 5%
- growth at 100 µM (SR): -8%
- growth at 100 µM (HOP-62 [11]): -60%
- growth at 100 µM (NCI-H226): -47%
- growth at 100 µM (SF-539): -73%
- growth at 100 µM (SNB-19 [12]): -42%
- growth at 100 µM (UACC-257): -88%
- growth at 100 µM (IGROV-1): -42%
- growth at 100 µM (786-0): -70%
- growth at 100 µM (A498): -59%
- growth at 100 µM (DU-145 [13]): -58%
